Experimental data taken from patent US9550782B2, “Compounds and methods for treating diabetes” (Medivation Technologies, Inc., priority 2011, dated 2017).
“And” between values parts separate entries of the source, which are not always exact repeats. Identical values can stand only once.

How the values were obtained:
[1] = molecular target: T1, human recombinant adrenergic α2B receptor (Homo sapiens, UniProt P18089); experiment: Radioligand binding, adrenergic α2B ([3H]Rauwolscine); conditions: for Percentage inhibition of ligand binding, Adrenergic α2B (0.03 μM): repeat datapoints each shown
T1 construct: expressed in transfected cells; host or cells: CHO-K1
T1 sequence (P18089 1-450): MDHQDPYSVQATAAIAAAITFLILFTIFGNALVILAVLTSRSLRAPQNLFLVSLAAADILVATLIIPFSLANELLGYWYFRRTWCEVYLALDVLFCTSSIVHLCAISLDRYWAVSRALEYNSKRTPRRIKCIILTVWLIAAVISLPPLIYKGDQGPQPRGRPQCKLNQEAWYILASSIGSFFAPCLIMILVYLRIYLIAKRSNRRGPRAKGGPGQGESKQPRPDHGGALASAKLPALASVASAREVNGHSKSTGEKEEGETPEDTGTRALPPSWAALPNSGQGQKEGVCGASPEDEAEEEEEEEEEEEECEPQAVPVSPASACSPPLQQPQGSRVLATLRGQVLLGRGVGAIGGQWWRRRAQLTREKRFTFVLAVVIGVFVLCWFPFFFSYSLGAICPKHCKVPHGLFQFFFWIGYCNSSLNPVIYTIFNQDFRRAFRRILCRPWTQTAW
In short: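 Membranes from CHO-K1 cells expressing human recombinant α2B, in 50 mM Tris-HCl pH 7.4, 12.5 mM MgCl2, 1 mM EDTA, 0.2% BSA, incubated with compound and 2.5 nM [3H]Rauwolscine, 60 min, 25 °C.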

[2] = molecular target: T2, human recombinant adrenergic α2A receptor (Homo sapiens, UniProt P08913); experiment: Radioligand binding, adrenergic α2A ([3H]MK-912); conditions: [3H]MK-912; for Percentage inhibition of ligand binding, Adrenergic α2A (0.1 μM) / Percentage inhibition of ligand binding, Adrenergic α2A: 0.1 µM
T2 construct: expressed in transfected cells; host or cells: insect Sf9 cells
T2 sequence (P08913 1-465): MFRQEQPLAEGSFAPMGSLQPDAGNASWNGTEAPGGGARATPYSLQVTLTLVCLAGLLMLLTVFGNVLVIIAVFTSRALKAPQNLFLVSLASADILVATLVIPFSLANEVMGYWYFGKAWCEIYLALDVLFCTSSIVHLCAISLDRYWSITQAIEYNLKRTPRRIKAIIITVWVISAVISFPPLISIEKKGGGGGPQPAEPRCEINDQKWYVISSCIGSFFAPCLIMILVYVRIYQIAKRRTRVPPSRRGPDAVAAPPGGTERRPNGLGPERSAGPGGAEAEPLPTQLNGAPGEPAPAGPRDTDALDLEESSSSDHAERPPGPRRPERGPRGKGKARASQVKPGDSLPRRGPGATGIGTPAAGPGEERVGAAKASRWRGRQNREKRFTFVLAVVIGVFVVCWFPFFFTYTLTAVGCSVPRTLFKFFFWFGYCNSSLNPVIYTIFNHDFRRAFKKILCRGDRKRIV
In short: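 In 50 mM Tris-HCl (pH 7.4) containing 12.5 mM MgCl2 and 2 mM EDTA, Sf9-expressed receptor was exposed to test compound plus 1 nM [3H]MK-912 at 25 °C for 60 min. Specific binding, corrected using 10 μM WB-4101, was quantified by filtration and counting and expressed as percent inhibition.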

[3] = molecular target: T3, rat adrenergic α1B receptor (Rattus norvegicus, UniProt P15823); experiment: Radioligand binding, adrenergic α1B ([3H]Prazosin); design: species or system Wistar Rat
T3 construct: rat adrenergic α1B receptor obtained from Wistar Rat liver; from tissue; host or cells: Wistar rat liver
T3 sequence (P15823 1-515): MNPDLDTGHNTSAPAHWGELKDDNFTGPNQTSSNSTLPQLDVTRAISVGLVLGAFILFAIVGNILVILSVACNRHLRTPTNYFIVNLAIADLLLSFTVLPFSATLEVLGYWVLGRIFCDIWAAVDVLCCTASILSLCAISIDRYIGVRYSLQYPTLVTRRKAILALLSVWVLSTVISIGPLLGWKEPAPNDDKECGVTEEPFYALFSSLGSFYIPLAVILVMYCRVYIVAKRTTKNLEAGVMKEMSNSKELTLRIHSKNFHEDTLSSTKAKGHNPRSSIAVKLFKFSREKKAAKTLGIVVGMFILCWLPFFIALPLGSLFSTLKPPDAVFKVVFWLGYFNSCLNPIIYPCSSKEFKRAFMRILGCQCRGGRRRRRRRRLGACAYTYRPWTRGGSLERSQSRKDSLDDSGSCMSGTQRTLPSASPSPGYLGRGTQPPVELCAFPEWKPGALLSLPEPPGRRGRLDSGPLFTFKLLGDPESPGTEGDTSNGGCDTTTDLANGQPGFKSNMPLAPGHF
In short: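 Incubation ran 60 min at 25 °C in Tris-HCl buffer (50 mM, pH 7.4, 0.5 mM EDTA) with Wistar rat liver α1B receptor. 10 μM phentolamine set non-specific binding.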

[4] = compound at 0.1 μM, repeat datapoints each shown
[5] = compound at 0.1 μM, repeat datapoints each shown, 0.1 µM
[6] = compound at 0.03 μM, repeat datapoints each shown

| Structure (SMILES) | Percentage inhibition of ligand binding, Adrenergic α2B (0.03 μM) ([1]; compound at 0.03 μM, 0.03 µM) | Percentage inhibition of ligand binding, Adrenergic α2A (0.1 μM) [2, 4] | Percentage inhibition of ligand binding, Adrenergic α1B (0.1 μM) [3, 5] | also measured |
| --- | --- | --- | --- | --- |
| CN1CCc2c(n(CC(C)(O)c3cccnc3)c3ccc(Cl)cc23)C1 (single isomer, unassigned) [28b] | 37% | 24% | 20% | – |
| Cc1cnc2c(c1)c1c(n2CC(N)c2ccc(C#N)cc2)CCNC1 (single isomer, unassigned) [160b] | – | – | – | Percentage inhibition of ligand binding, Adrenergic α2B ([1]; 0.03 μM compound, 0.03 µM): 41%; Percentage inhibition of ligand binding, Adrenergic α2A ([2]; 0.1 μM compound): 5%; Percentage inhibition of ligand binding, Adrenergic α1B ([3]; 0.1 μM compound, 0.1 µM): 65% |
| Cc1ccc2c(c1)c1c(n2CC(C)(OC(=O)C(C)C)c2cccnc2)CCN(C)C1 (single isomer, unassigned) [146a] | – | – | – | Percentage inhibition of ligand binding, Adrenergic α2B ([1]; 0.03 μM compound, 0.03 µM): 37%; Percentage inhibition of ligand binding, Adrenergic α2A ([2]; 0.1 μM compound): −1%; Percentage inhibition of ligand binding, Adrenergic α1B ([3]; 0.1 μM compound, 0.1 µM): 41% |
| Cc1ccc2c(c1)c1c(n2CC(O)c2ccc(C#N)cc2)CCNC1 (stereo not drawn) [II-116] | – | – | – | inhibition at 0.03 µM ([1]; read-out: Percentage inhibition of ligand binding, Adrenergic α2B (0.03 μM), compound at 0.03 μM, repeat datapoints each shown): 43%; inhibition at 0.1 µM ([2]; read-out: Percentage inhibition of ligand binding, Adrenergic α2A (0.1 μM), compound at 0.1 μM, repeat datapoints each shown): 3%; inhibition at 0.1 µM ([3]; read-out: Percentage inhibition of ligand binding, Adrenergic α1B (0.1 μM), compound at 0.1 μM, repeat datapoints each shown): 4% |
| Cc1cnc2c(c1)c1c(n2CC(C)(O)c2cccnc2)CCN2CCCC12 (single isomer, unassigned) [26d] | 6% and 11% | 0% | −2% | – |
| Cc1ccc2c(c1)c1c(n2CC(C)(O)c2ccc(C)nc2)CCN(C)C1 (stereo not drawn) [29b] | 46% | 10% | 14% | – |
| CN1CCc2c(n(CC(O)c3ccncc3)c3ccc(Cl)cc23)C1 (single isomer, unassigned) [41a] | 14% | −9% | 43% | – |
| CN1CCc2c(c3cccc(Br)c3n2CC(O)c2ccncc2)C1 (single isomer, unassigned) [48a] | 58% | 12% | 16% | – |
| Cc1cnc2c(c1)c1c(n2CC(C)(O)c2cccnc2)CCN2CCCC12 (single isomer, unassigned) [26c] | 1% and 7% | 19% | 1% | – |
| Cc1ccc2c(c1)c1c(n2CC(C)(O)c2cccnc2)CN(C)CC1 (stereo not drawn) [14b, 1-(2,6-dimethyl-1,2,3,4-tetrahydro-3-carbolin-9-yl)-2-pyridin-3-yl-propan-2-ol] | 14% | −6% | 25% | – |
| CN1CCc2c(c3ccc(C(F)(F)F)cc3n2CC(O)c2cccnc2)C1 (single isomer, unassigned) [40b] | 29% | 13% | −2% | – |
| Cc1ccc2c(c1)c1c(n2CC(C)(O)c2cccnc2)CCNC1 (single isomer, unassigned) [24a] | 63% | 8% | – | Percentage inhibition of ligand binding, Adrenergic α1B (0.1 μM) [3, 4]: 8% |
| Cc1ccc2c(c1)c1c(n2CC(C)(O)c2ccc(C)nc2)CCN(C)C1 (single isomer, unassigned) [29a] | 98% and 100% | 35% and 39% | 32% and 38% | Percentage inhibition of ligand binding, Adrenergic α2A (0.03 μM) [2, 6]: 16%; Percentage inhibition of ligand binding, Adrenergic α1B (0.03 μM) [3, 6]: 19% |
| OCCN1CCc2c(c3cc(Cl)ccc3n2CC(O)c2cccnc2)C1 (single isomer, unassigned) [II-94b] | – | – | – | Percentage inhibition of ligand binding, Adrenergic α2B ([1]; compound at 0.03 μM, 0.03 µM): 24%; Percentage inhibition of ligand binding, Adrenergic α2A ([2]; compound at 0.1 μM): −5%; Percentage inhibition of ligand binding, Adrenergic α1B ([3]; compound at 0.1 μM): 7% |
| Cc1ccc2c(c1)c1c(n2CC(O)c2ccncc2Cl)CCN(C)C1 (single isomer, unassigned) [135a] | – | – | – | Percentage inhibition of ligand binding, Adrenergic α2B ([1]; 0.03 μM compound, 0.03 µM): 42%; Percentage inhibition of ligand binding, Adrenergic α2A ([2]; 0.1 μM compound): 4%; Percentage inhibition of ligand binding, Adrenergic α1B ([3]; 0.1 μM compound, 0.1 µM): 60% |
| CN1CCc2c(c3cccc(Br)c3n2CC(O)c2ccncc2)C1 (single isomer, unassigned) [48b] | 86% | 17% | 14% | – |
| OC(Cn1c2c(c3cccnc31)CN1CCCC1C2)c1ccncc1 (single isomer, unassigned) [37b] | −3% | −20% | −10% | – |
| Cc1ccc2c(c1)c1c(n2CC(c2ccncc2)N(C)C)CCN(C)C1 (single isomer, unassigned) [150a] | – | – | – | Percentage inhibition of ligand binding, Adrenergic α2B ([1]; 0.03 μM compound, 0.03 µM): 88% and 96%; Percentage inhibition of ligand binding, Adrenergic α2B ([1]; 0.1 μM compound): 100%; Percentage inhibition of ligand binding, Adrenergic α2A ([2]; 0.1 μM compound): 16%; Percentage inhibition of ligand binding, Adrenergic α1B ([3]; 0.1 μM compound, 0.1 µM): 16% |
| CN1CCc2c(c3cccc(Cl)c3n2CC(O)c2ccncc2)C1 (single isomer, unassigned) [45a] | 54% | −4% | 23% | – |
| CN1CCc2c(c3ccc(C(F)(F)F)cc3n2CC(O)c2cccnc2)C1 (single isomer, unassigned) [40a] | 27% | 7% | 2% | – |

Continued, in another order:

| Percentage inhibition of ligand binding, Adrenergic α2B (0.03 μM) ([1]; compound at 0.03 μM, 0.03 µM) | Percentage inhibition of ligand binding, Adrenergic α2A (0.1 μM) [2, 4] | Percentage inhibition of ligand binding, Adrenergic α1B (0.1 μM) [3, 5] | Structure (SMILES) | also measured |
| --- | --- | --- | --- | --- |
| 35% | 5% | 33% | Cc1ccc2c(c1)c1c(n2CC(O)c2ccncc2)CC2CCCN2C1 (single isomer, unassigned) [76c] | – |
| 15% | 18% | 11% | CN1CCc2c(c3cc(C(F)(F)F)ccc3n2CC(O)c2cccnc2)C1 (single isomer, unassigned) [59a] | – |
| 31% | 12% | 7% | CN1CCc2c(c3cc(C(F)(F)F)ccc3n2CC(O)c2cccnc2)C1 (single isomer, unassigned) [59b] | – |
